Nine compounds from paper PMC12136037, “Type II kinase inhibitors that target Parkinson’s disease–associated LRRK2” (Science Advances, 2025) can be followed below.

Experiment in all cases: DSF 100 kinase selectivity screen;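 note: compound tested at 20 µM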
Type in all cases: binding

For assay [1], the target named is T1, ~100 representative kinases (Homo sapiens, UniProt P15056).
T1 construct: Recombinant protein kinase domains with a concentration of 2 μM
The note with it: Protein BRAF; average of three replicates. In short, it runs like this:
(§1)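 Each kinase domain, at 2 μM, is mixed with 20 μM test compound and SYPRO Orange in Hepes (20 mM, pH 7.5) with 500 mM NaCl. Temperature is then raised at 3°C/min and fluorescence-monitored unfolding yields the melting temperature change, ΔTm in degrees Celsius.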

Assay [2] deals with T2, ~100 representative kinases (Homo sapiens, UniProt P48730).
T2 construct: Recombinant protein kinase domains with a concentration of 2 μM
T2 sequence (P48730 whole entry, the tested form may be a part): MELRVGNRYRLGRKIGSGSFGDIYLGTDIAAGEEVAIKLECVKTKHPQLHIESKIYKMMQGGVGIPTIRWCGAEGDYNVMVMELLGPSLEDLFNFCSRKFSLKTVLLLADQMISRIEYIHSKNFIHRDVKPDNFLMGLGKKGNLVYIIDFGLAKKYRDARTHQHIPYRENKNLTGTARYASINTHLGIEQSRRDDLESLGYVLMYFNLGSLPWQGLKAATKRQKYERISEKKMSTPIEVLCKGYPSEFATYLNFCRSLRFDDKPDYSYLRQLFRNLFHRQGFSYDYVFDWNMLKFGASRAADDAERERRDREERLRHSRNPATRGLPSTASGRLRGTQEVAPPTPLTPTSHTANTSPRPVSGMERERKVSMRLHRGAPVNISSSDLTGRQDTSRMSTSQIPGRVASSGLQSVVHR
The note with it: Protein CSNK1D; average of three replicates. In short, it runs like this:
as §1

Assay [3] has as its target T3, ~100 representative kinases (Homo sapiens, UniProt P51955).
T3 construct: Recombinant protein kinase domains with a concentration of 2 μM
T3 sequence (P51955 1-445): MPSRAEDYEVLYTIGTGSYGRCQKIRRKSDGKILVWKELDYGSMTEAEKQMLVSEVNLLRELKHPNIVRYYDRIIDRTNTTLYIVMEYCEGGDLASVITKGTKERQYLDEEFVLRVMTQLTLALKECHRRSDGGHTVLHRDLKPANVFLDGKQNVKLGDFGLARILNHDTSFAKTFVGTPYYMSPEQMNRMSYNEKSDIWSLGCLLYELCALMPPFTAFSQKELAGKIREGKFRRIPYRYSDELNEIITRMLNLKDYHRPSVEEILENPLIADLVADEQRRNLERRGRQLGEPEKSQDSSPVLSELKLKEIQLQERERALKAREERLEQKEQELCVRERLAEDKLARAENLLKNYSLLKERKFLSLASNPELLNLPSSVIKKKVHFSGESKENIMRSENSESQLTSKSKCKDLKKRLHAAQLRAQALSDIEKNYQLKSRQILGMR
To be noted: protein NEK2; average of three replicates. In short, it runs like this: as §1

For assay [4], the target named is T4, ~100 representative kinases (Homo sapiens, UniProt Q96NX5).
T4 construct: Recombinant protein kinase domains with a concentration of 2 μM
T4 sequence (Q96NX5 whole entry, the tested form may be a part): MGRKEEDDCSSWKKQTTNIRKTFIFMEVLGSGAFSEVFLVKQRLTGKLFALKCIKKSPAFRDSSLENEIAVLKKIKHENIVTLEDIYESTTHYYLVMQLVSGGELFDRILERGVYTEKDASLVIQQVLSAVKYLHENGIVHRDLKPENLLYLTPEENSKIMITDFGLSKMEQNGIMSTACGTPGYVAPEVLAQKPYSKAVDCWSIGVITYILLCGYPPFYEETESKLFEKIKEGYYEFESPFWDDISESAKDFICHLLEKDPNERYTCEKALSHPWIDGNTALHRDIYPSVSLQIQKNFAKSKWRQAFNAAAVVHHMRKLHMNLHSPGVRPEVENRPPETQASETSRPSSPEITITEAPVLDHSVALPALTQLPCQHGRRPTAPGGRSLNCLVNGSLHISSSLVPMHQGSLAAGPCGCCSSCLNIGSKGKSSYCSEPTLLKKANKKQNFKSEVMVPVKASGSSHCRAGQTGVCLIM
The note with it: Protein CAMK1G; average of three replicates. In short, it runs like this:
as §1

The target of assay [5] is T5, ~100 representative kinases (Homo sapiens, UniProt P22830).
T5 construct: Recombinant protein kinase domains with a concentration of 2 μM
T5 sequence (P22830 55-423): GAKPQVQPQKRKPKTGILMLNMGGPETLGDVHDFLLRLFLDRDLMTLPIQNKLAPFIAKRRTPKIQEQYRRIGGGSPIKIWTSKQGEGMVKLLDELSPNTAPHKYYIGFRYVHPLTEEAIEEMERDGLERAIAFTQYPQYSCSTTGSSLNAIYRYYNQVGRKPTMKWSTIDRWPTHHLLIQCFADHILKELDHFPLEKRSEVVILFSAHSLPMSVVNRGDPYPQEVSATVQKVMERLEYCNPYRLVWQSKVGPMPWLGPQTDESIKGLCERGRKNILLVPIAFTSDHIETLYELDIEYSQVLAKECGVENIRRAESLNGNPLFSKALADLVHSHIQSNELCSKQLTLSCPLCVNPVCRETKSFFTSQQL
The note with it: protein FECH; average of three replicates. In short, it runs like this: as §1

In assay [6] the target is T6, ~100 representative kinases (Homo sapiens, UniProt Q96SB4).
T6 construct: Recombinant protein kinase domains with a concentration of 2 μM
T6 sequence (Q96SB4 whole entry, the tested form may be a part): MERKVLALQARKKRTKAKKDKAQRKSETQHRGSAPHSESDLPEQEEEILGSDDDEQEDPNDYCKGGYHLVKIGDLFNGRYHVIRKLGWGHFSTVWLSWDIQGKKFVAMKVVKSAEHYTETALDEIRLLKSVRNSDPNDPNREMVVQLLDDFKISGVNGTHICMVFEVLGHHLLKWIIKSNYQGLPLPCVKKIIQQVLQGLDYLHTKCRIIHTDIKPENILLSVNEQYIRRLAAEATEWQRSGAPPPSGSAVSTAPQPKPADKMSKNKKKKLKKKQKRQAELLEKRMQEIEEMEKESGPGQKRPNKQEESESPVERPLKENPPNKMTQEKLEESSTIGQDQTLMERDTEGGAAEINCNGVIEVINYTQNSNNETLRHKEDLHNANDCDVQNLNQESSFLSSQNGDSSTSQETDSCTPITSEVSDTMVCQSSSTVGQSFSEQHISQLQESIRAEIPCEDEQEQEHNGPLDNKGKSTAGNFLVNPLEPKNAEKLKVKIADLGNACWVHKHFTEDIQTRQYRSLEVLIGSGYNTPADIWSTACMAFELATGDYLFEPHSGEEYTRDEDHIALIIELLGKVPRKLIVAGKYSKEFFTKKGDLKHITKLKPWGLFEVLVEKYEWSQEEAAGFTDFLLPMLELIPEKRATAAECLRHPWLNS
To be noted: Protein SRPK1; DSF; average of three replicates. In short, it runs like this:
as §1

Assay [7] concerns the target T7, ~100 representative kinases (Homo sapiens, UniProt Q99986).
T7 construct: Recombinant protein kinase domains with a concentration of 2 μM
T7 sequence (Q99986 1-396): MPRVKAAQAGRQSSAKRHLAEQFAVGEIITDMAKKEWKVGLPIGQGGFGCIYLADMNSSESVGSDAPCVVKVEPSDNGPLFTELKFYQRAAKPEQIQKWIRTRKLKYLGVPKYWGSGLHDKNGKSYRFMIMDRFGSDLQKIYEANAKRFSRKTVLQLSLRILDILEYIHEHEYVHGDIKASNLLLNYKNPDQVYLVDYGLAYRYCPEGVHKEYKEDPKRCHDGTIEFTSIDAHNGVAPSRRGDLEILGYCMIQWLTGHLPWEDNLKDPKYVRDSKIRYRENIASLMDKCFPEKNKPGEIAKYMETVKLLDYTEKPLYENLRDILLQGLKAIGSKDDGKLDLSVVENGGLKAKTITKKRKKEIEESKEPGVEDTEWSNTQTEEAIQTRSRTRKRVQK
To be noted: Protein VRK1; DSF; average of three replicates. In short, it runs like this:
as §1

Assay [8] addresses T8, ~100 representative kinases (Homo sapiens, UniProt P49841).
T8 construct: Recombinant protein kinase domains with a concentration of 2 μM
To be noted: protein GSK3B; average of three replicates. In short, it runs like this: as §1

Assay [9] addresses T9, ~100 representative kinases (Homo sapiens, UniProt P00519).
T9 construct: Recombinant protein kinase domains with a concentration of 2 μM
The note with it: Protein ABL1; average of three replicates. In short, it runs like this:
as §1

In assay [10] the target is T10, ~100 representative kinases (Homo sapiens, UniProt O14733).
T10 construct: Recombinant protein kinase domains with a concentration of 2 μM
T10 sequence (O14733 1-419): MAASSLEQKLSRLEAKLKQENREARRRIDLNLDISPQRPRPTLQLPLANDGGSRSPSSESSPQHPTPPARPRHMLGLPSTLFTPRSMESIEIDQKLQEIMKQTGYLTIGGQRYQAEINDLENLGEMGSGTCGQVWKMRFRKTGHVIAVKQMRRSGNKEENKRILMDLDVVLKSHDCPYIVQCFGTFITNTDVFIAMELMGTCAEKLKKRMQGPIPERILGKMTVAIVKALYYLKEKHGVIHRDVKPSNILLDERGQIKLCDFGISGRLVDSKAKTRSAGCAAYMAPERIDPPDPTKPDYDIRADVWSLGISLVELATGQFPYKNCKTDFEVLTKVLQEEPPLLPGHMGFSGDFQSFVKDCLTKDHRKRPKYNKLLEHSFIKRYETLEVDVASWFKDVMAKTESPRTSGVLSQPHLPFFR
The note with it: protein MAP2K7; average of three replicates. In short, it runs like this: as §1

In assay [11] the target is T11, ~100 representative kinases (Homo sapiens, UniProt Q00536).
T11 construct: Recombinant protein kinase domains with a concentration of 2 μM
T11 sequence (Q00536 whole entry, the tested form may be a part): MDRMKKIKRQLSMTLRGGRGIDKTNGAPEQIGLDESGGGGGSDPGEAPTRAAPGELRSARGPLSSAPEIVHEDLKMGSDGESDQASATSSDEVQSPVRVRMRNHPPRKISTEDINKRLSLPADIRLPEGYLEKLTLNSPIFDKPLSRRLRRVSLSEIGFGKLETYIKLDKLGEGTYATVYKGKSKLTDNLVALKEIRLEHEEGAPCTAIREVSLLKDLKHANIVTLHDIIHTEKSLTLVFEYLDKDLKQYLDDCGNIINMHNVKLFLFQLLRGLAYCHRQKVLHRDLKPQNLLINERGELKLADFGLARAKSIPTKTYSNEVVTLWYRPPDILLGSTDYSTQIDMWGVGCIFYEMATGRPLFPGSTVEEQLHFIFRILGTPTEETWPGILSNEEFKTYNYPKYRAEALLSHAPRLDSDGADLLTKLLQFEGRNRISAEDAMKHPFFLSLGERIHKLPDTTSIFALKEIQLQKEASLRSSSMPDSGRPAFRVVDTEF
The note with it: protein PCTK1; average of three replicates. In short, it runs like this: as §1

Assay [12] concerns the target T12, ~100 representative kinases (Homo sapiens, UniProt Q8TDX7).
T12 construct: Recombinant protein kinase domains with a concentration of 2 μM
The note with it: protein NEK7; average of three replicates. In short, it runs like this:
as §1

Assay [13] addresses T13, ~100 representative kinases (Homo sapiens, UniProt Q13627).
T13 construct: Recombinant protein kinase domains with a concentration of 2 μM
To be noted: Protein DYRK1A; average of three replicates. In short, it runs like this:
as §1

T9 sequence (P00519 whole entry, the tested form may be a part): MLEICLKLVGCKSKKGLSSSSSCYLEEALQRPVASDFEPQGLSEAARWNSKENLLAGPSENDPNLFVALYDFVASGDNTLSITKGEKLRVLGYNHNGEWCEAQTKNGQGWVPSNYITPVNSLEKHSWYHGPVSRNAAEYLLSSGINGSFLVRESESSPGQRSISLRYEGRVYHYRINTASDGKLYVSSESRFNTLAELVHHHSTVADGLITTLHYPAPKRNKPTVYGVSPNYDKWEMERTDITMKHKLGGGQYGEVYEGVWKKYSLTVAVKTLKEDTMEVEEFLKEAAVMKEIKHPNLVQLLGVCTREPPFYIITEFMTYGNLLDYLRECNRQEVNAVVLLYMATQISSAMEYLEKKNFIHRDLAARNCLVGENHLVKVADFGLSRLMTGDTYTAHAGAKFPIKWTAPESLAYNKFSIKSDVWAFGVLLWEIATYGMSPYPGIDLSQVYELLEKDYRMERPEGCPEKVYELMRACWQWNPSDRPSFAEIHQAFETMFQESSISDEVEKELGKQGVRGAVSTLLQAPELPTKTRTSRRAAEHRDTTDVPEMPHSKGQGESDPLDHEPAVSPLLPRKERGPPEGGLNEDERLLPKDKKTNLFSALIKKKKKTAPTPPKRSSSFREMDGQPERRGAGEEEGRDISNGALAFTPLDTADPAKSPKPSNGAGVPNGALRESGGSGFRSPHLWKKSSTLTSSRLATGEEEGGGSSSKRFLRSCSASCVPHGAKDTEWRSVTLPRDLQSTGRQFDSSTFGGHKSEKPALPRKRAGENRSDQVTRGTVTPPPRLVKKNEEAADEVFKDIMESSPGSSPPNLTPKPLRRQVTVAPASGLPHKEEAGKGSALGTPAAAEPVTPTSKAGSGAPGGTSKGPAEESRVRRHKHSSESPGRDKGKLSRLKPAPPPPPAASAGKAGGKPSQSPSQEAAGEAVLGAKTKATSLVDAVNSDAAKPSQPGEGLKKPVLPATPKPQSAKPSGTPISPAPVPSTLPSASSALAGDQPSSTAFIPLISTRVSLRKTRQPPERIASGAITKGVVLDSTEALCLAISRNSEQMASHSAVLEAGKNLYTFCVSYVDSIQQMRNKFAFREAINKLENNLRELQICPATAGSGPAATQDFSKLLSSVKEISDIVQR
T12 sequence (Q8TDX7 whole entry, the tested form may be a part): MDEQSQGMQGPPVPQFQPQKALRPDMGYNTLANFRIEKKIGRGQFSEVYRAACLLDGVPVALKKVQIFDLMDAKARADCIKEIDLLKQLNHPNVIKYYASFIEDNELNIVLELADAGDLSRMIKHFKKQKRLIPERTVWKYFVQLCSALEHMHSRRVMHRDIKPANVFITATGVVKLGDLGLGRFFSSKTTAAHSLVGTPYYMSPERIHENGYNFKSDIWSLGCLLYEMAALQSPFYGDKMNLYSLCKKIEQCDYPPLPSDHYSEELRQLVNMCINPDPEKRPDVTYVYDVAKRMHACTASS
T1 sequence (P15056 whole entry, the tested form may be a part): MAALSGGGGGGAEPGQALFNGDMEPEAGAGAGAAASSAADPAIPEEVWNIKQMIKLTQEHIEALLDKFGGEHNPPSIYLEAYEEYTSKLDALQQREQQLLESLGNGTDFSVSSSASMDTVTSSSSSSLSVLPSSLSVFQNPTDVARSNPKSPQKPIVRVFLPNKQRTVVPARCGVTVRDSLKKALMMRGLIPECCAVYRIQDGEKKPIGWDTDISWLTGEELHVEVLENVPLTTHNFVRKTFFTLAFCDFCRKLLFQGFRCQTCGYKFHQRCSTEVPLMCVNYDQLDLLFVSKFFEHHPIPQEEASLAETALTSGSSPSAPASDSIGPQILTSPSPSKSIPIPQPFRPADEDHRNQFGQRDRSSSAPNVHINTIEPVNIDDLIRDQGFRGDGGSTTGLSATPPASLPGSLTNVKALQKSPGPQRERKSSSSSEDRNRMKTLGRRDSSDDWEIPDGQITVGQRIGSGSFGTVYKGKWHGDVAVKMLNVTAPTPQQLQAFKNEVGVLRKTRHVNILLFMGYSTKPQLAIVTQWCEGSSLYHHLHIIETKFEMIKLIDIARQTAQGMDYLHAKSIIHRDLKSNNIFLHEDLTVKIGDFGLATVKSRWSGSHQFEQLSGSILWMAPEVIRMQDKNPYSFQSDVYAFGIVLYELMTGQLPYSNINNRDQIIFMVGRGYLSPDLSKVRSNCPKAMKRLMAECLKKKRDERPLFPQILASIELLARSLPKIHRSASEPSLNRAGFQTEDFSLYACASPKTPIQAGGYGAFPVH
T8 sequence (P49841 whole entry, the tested form may be a part): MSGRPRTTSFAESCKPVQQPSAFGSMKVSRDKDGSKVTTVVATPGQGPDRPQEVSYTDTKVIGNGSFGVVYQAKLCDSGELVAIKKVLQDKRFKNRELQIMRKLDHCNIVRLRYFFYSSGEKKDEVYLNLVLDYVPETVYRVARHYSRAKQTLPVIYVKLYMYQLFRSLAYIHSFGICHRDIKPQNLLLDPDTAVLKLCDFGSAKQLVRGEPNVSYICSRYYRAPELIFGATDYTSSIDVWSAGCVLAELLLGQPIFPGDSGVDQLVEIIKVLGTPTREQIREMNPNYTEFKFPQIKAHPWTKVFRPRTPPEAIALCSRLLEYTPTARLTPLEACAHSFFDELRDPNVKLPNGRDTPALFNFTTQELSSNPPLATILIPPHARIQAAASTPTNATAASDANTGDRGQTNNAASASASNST

On to `Cc1ccc(NC(=O)C2(C(=O)Nc3cccc(-c4c[nH]c5ncnc(N6CCOCC6)c45)c3)CC2)cc1` [Compound 14], for which the dTm in [1] was determined as 8.39 K; in assay [2] it was 1.58 K; in assay [3], 0.85 K; in [4], 1.22 K; in assay [5], 0.67 K; in [6], 7.30 K. Besides, the dTm in [7] is on record as 0.91 K; in assay [8], 4.34 K; in [9], 1.79 K; in assay [10], 2.82 K; in [11], 6.61 K; in [12] it was -0.37 K. Also, in assay [13], the dTm amounted to 3.30 K.

Take `CCc1ccc(NC(=O)C2(C(=O)Nc3cccc(-c4c[nH]c5ncnc(N6CCOCC6)c45)c3)CC2)cc1` [Compound 15]: the dTm is reported as 9.26 K in [1]; 1.30 K in assay [2]; 2.27 K in assay [3]; 1.75 K in assay [4]; -8.07 K in assay [5]; 5.47 K in assay [6]. Also, the dTm is reported as 1.12 K in assay [7]; 5.12 K in [8]; 1.94 K in assay [9]; 3.12 K in assay [10]; 9.05 K in [11]; -0.42 K in assay [12]. The dTm in assay [13] was found to be 3.55 K.

Regarding `COc1ccc(NC(=O)C2(C(=O)Nc3cccc(-c4c[nH]c5ncnc(N6CCOCC6)c45)c3)CC2)cc1` [Compound 16], the dTm was 4.18 K in assay [1]; 0.92 K in [2]; 2.18 K in assay [3]; -0.76 K in [4]; 0.0636 K in assay [5]; 3.35 K in [6]. The dTm was 0.60 K in assay [7]; 2.09 K in [8]; 1.06 K in assay [9]; 0.55 K in assay [10]; 5.58 K in [11]; -0.67 K in assay [12]. This compound came in with a dTm in [13] of 0.49 K.

In the case of `O=C(Nc1cccc(-c2c[nH]c3ncnc(N4CCOCC4)c23)c1)C1(C(=O)Nc2ccc(F)c(F)c2)CC1` [Compound 17], the dTm in assay [1] worked out at 7.80 K; in [2] it was 2.63 K; in assay [3] it was 2.00 K; in [4] it was 2.10 K; in [5], 1.70 K; in [6], 8.69 K. Also, the dTm in assay [7] is listed as 1.14 K; in assay [8] it was 7.13 K; in assay [9], 1.22 K; in assay [10], 4.27 K; in assay [11], 5.61 K; in assay [12], 1.01 K. In addition, the dTm in assay [13] came out at 4.77 K.

Consider `O=C(Nc1cccc(-c2c[nH]c3ncnc(N4CCOCC4)c23)c1)C1(C(=O)Nc2ccc(F)c(Cl)c2)CC1` [Compound 18], for which the dTm in assay [1] was 10.73 K; in assay [2], 3.14 K; in [3] it was 1.39 K; in assay [4] it was 3.39 K; in assay [5], -2.64 K; in [6], 12.10 K. The dTm came to 1.71 K in [7]; 9.62 K in assay [8]; 2.25 K in assay [9]; 5.35 K in [10]; 7.39 K in assay [11]; 1.61 K in assay [12]. In assay [13], this compound displayed a dTm of 6.34 K.

As for `O=C(Nc1cccc(-c2c[nH]c3ncnc(N4CCOCC4)c23)c1)C1(C(=O)Nc2ccc(F)c(Br)c2)CC1` [Compound 19], the dTm in assay [1] is reported as 13.24 K; in assay [2], 0.43 K; in assay [3] it was -0.29 K; in [4] it was 5.35 K; in assay [5] it was -5.01 K; in assay [6], 7.58 K. Also, the dTm was 1.65 K in [7]; 0.00 K in [8]; 1.83 K in assay [9]; 4.93 K in [10]; 4.12 K in [11]; -1.14 K in assay [12]. In addition, the dTm in assay [13] is given as 1.71 K.

On to `Cc1cc(NC(=O)C2(C(=O)Nc3cccc(-c4c[nH]c5ncnc(N6CCOCC6)c45)c3)CC2)ccc1F` [Compound 20], for which the dTm in [1] turned out to be 13.62 K; in assay [2] it was 3.49 K; in assay [3], 1.19 K; in assay [4], 2.80 K; in assay [5], 2.57 K; in assay [6] it was 13.77 K. The dTm in assay [7] stood at 1.43 K; in [8], 9.68 K; in assay [9] it was 2.29 K; in assay [10], 5.31 K; in assay [11], 8.82 K; in assay [12], 0.98 K. The dTm in [13] came out at 7.39 K.

As to `COc1cc(NC(=O)C2(C(=O)Nc3cccc(-c4c[nH]c5ncnc(N6CCOCC6)c45)c3)CC2)ccc1F` [Compound 21], the dTm was 10.93 K in assay [1]; 3.13 K in assay [2]; 1.38 K in [3]; 1.23 K in assay [4]; -0.18 K in [5]; 11.40 K in assay [6]. Further, the dTm was 0.93 K in assay [7]; 8.20 K in assay [8]; 1.21 K in assay [9]; 4.61 K in assay [10]; 6.37 K in assay [11]; 0.39 K in assay [12]. The same compound yielded a dTm in [13] of 2.83 K.

For `CC(C)(C)c1cccc(NC(=O)C2(C(=O)Nc3cccc(-c4c[nH]c5ncnc(N6CCOCC6)c45)c3)CC2)c1` [Compound 22], the dTm in assay [1] is given as 15.10 K; in assay [2], -2.04 K; in assay [3] it was 0.62 K; in assay [4], 4.22 K; in assay [5], -3.46 K; in assay [6], 9.79 K. Further, the dTm in assay [7] is reported as 0.81 K; in assay [8], 6.13 K; in [9], 2.30 K; in [10] it was 3.77 K; in assay [11], 4.90 K; in [12], 0.18 K. In assay [13], this compound showed a dTm of 0.19 K.
